The values below come from PubChem BioAssay (NCI).

What all share (assay): NCI tumour cell line growth inhibition, 48 h
For test [1], the system named is KM20L2 colon.
Test [2] has as its system RXF 393 renal.
For test [3], the system named is SNB-75 CNS.
For test [4], the system named is KM12 colon.
Test [5] concerns SK-MEL-28 melanoma.
Test [6] deals with OVCAR-5 ovarian.
The subject of test [7] is SNB-78 CNS.
The test system of test [8] is DMS 273 small cell lung.
In test [9] the test system is HOP-18 NSCLC.
Test [10] concerns SK-OV-3 ovarian.
Test [11] relates to PC-3 prostate.
The subject of test [12] is BT-549 breast.
Test [13] deals with HS 578T breast.
Test [14] relates to MDA-MB-231 breast.
In test [15] the test system is M19-MEL melanoma.
The subject of test [16] is DMS 114 small cell lung.

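96-well plates; 48 h exposure; 5 concentrations. Endpoints by linear interpolation between flanking doses. Not reached: highest tested concentration assigned. TGI marks complete inhibition of growth.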

Turning to `CC1(C)C2CCC3(OCCO3)C1C1OC12` (stereo not given), the TGI in test [1], in test [2], in [3], in test [4], in [5] and in [6] was above 100 µM in each case. Moreover, the TGI in test [7], in test [8], in test [9] and in test [10] was above 100 µM each time.
In the case of `CN(C)CCCNc1nnc(NCCCN(C)C)c2c(=O)c3sccc3[nH]c12`, the TGI was above 61.4 µM in [11]; 42.1 µM in [2]; 19.6 µM in test [3]; above 58.3 µM in test [4]; above 79 µM in [12]; above 88.6 µM in test [13]. For the same compound, the TGI in test [5] was above 84.9 µM; in test [6], above 85.1 µM; in [14], above 30.7 µM; in test [10], above 100 µM.
Regarding `CCCN(CCCCN1C(=O)c2ccccc2C1=O)CC1COc2ccccc2O1` (stereo not given), the TGI in test [11], in [2], in test [3], in [4], in test [12] and in test [13] was above 100 µM each time. Further, the TGI in test [5], in test [6], in test [14] and in test [10] was above 100 µM each time.
As for `COc1cc(C(N)=O)cc(NC(=O)/C=C/c2ccccc2)c1OC`, the TGI is above 100 µM in [11]; above 100 µM in test [2]; 93.1 µM in [3]; above 100 µM in test [4]; above 100 µM in [12]; above 100 µM in test [13]. For the same compound, the TGI in test [5], in [6], in [14] and in [10] was above 100 µM each time.
For `CCN(CC)Cc1nc(C2CCC([N+](=O)[O-])O2)no1` (stereo not given), the TGI in [11] was above 100 µM; in test [2] it was 86.8 µM; in test [3], 96.6 µM; in test [4] it was above 100 µM; in test [12] it was 56.7 µM; in [13], 82.4 µM. Also, the TGI in test [5] was 53.8 µM; in test [6] it was 84.2 µM; in test [14], above 100 µM; in [10], above 100 µM.
As to `O=C1C2CCC(C2)C12CC1(c3ccccc3)C(=O)c3ccccc3N1O2` (stereo not given), the TGI in [1], in test [2], in [3], in test [15], in test [5] and in test [7] was above 100 µM throughout. In addition, the TGI in [16], in [8], in test [9] and in test [10] was above 100 µM in each case.
Consider `COc1ccc([N-]/C(=N\n2c(=O)c(C)nn(C)c2=S)N(c2ccc(OC)cc2)c2nn3c(=O)c(C)n[n+](C)c3s2)cc1`, for which the TGI in test [1], in test [2], in test [3], in test [4], in [15] and in test [5] was above 100 µM throughout. The TGI in test [6], in test [7], in [16], in test [8] and in test [9] was above 100 µM each time.
As to `O=C1c2ccccc2C(=O)N1CCCCCCNOCCCN1C(=O)c2ccccc2C1=O`, the TGI in test [11] was above 100 µM; in test [2] it was above 100 µM; in [3], above 100 µM; in test [4], 78.8 µM; in test [12] it was 85.4 µM; in test [13], above 100 µM. The TGI in [5], in test [6], in test [14] and in [10] was above 100 µM throughout.
For the compound `CCOC(=O)c1cc(C2CCN(Cc3ccccc3)C2=O)c(C(=O)C(=[N+]=[N-])C(C)=O)[nH]1` (stereo not given), the TGI in test [11], in [2], in test [3], in test [4], in [12] and in [13] was above 100 µM throughout. Also, the TGI in [5], in [6], in [14] and in test [10] was above 100 µM in each case.
In the case of `CC(C)OP(=O)(OC(C)C)/C(=N/N)NNc1ccc([N+](=O)[O-])cc1`, the TGI in test [1], in test [3], in test [4], in test [15], in test [5] and in test [6] was above 100 µM in each case. The TGI in test [7], in [16] and in test [8] was above 100 µM throughout.
`CC(=O)OC1CC2(c3ccccc3)C(=O)c3ccccc3N2O1` (stereo not given): the TGI in test [1], in test [2], in [3], in test [15], in test [5] and in test [7] was above 100 µM each time. Moreover, the TGI in test [16], in test [8], in [9] and in test [10] was above 100 µM throughout.
Regarding `N#CC1CCN2N=C(c3ccccc3)SC12c1ccccc1` (stereo not given), the TGI in test [11], in test [2], in test [3], in [4], in [12] and in test [13] was above 100 µM each time. The TGI in test [5], in test [6], in [14] and in test [10] was above 100 µM throughout.
Consider `COc1ccc2c(c1)nc1n2C(c2c(F)cccc2Cl)SC1` (stereo not given), for which the TGI in [11] is above 51.6 µM; in test [2], above 22 µM; in test [3], 7.85 µM; in test [4], above 54.4 µM; in test [12], above 31.3 µM; in test [13] it was 6.4 µM. The TGI in test [5] is 37.2 µM; in [6] it was above 100 µM; in test [14] it was 27.9 µM; in test [10] it was above 38.1 µM.
In the case of `c1ccc2c3c([nH]c2c1)C1c2[nH]c4ccccc4c2CCN1CC3`, the TGI in [11] was found to be 27.1 µM; in test [2] it was 27 µM; in test [3], 38.8 µM; in test [4] it was 41.3 µM; in test [12], 29.9 µM; in test [13] it was 44.7 µM. The TGI turned out to be 31.7 µM in [5], 33.7 µM in test [6], 36.6 µM in test [14] and 27.1 µM in test [10].
On to `Cc1ccc(-n2c(Cn3nnc(-c4cccnc4)n3)nn(C3OC(COC(=O)c4ccccc4)C(OC(=O)c4ccccc4)C3OC(=O)c3ccccc3)c2=S)cc1` (stereo not given), for which the TGI in test [11], in test [2], in [3], in test [4], in test [12] and in [13] was above 100 µM each time. Further, the TGI in [5], in [6], in test [14] and in test [10] was above 100 µM each time.
As for `CCCCCC(=O)OCC1(CO)C/C(=C\CC(C(C)C)C(C)C)C(=O)O1` (stereo not given), the TGI in test [11], in test [2], in [3], in test [4], in [12] and in test [13] was above 100 µM in each case. Also, the TGI in [5], in test [6], in test [14] and in test [10] was above 100 µM each time.
As for `COC(=O)NN=C(c1ccc(Cl)cc1)c1ccc(Cl)cc1`, the TGI in test [11], in [2], in [3], in test [4], in test [12] and in test [13] was above 100 µM in each case. Besides, the TGI in test [5], in [6], in [14] and in test [10] was above 100 µM throughout.
Regarding `O=c1c2ccccc2nc(-c2ccccc2)n1NC(=S)Nc1ccc(Cl)cc1[N+](=O)[O-]`, the TGI in test [2] was above 100 µM; in [3], above 100 µM; in [4], above 100 µM; in test [15], above 100 µM; in [5], 82.4 µM; in test [6], above 100 µM. For the same compound, the TGI in test [16], in test [8], in test [9] and in test [10] was above 100 µM throughout.
As to `CC(C)N=C(NC#N)NS(=O)(=O)c1cnccc1Nc1ccc(Cl)cc1`, the TGI in [11], in test [2], in [3], in test [4], in test [12] and in test [13] was above 100 µM in each case. In addition, the TGI in test [5], in test [6], in test [14] and in [10] was above 100 µM throughout.
For `CSc1ccc2c(cc1=O)C(NC(=O)c1ccc(OC(C)=O)cc1)CCc1cc(O)c(O)c(O)c1-2` (stereo not given), the TGI in [1] was above 100 µM; in test [3], 55.6 µM; in test [4], above 100 µM; in [15] it was 29.2 µM; in [5] it was above 100 µM; in test [6], 78 µM. In addition, the TGI was above 100 µM in test [7], 52.4 µM in test [16], 47.1 µM in [8] and 98.1 µM in test [10].
Turning to `c1ccc2sc(C3(N4CCCCC4)CCCCCC3)cc2c1`, the TGI in test [11] was 29.3 µM; in test [2], 28.6 µM; in test [3] it was 42 µM; in [4] it was 31.2 µM; in test [12], 52.7 µM; in test [13] it was 42 µM. Also, the TGI is 21.6 µM in test [5], 36.7 µM in test [6], 42.1 µM in test [14] and 66.7 µM in test [10].
As to `COc1cc(C(C)c2cc3c(cc2OCCCCOc2cc4c(cc2C(C)c2cc(OC)c(OC)c(OC)c2)OCO4)OCO3)cc(OC)c1OC` (stereo not given), the TGI in [1] is above 100 µM; in [2], 73.3 µM; in [3] it was 69.7 µM; in test [4], above 100 µM; in [15], above 100 µM; in [5], above 100 µM. The TGI in test [6] was above 100 µM; in [7], 64 µM; in test [16], 45.1 µM; in [10], 91.8 µM.
Consider `CN(C)c1ccc(/C=C(\NC(=O)c2ccccc2)C(=O)Nc2ccccc2C(=O)O)cc1`, for which the TGI in [11], in test [2], in [3], in test [4], in test [12] and in test [13] was above 100 µM throughout. Moreover, the TGI in test [5], in test [6], in test [14] and in test [10] was above 100 µM throughout.
With `CCn1c(=O)ccc2ccc(N(CCO)CCO)nc21`, the TGI in test [11], in test [2], in test [3], in test [4], in test [12] and in test [13] was above 100 µM throughout. For the same compound, the TGI in test [5], in test [6], in test [14] and in test [10] was above 100 µM each time.
`Cc1nc2ccccc2c(=O)n1NC(=O)c1ccccc1O`: the TGI in test [11], in test [2], in test [3], in [4], in [12] and in test [13] was above 100 µM in each case. Besides, the TGI in [5], in test [6], in [14] and in [10] was above 100 µM throughout.
Regarding `O=C1c2nn(-c3ccccc3)nc2C(c2ccccc2)N1c1ccccc1` (stereo not given), the TGI in test [1] was above 100 µM; in test [3], 81.2 µM; in test [4], above 100 µM; in test [15], above 100 µM; in test [5] it was above 100 µM; in test [6], above 100 µM. For the same compound, the TGI in [7], in test [16], in [8] and in test [9] was above 100 µM each time.
